The values below come from the NIST ThermoML archive (doi:10.1016/j.jct.2012.07.009).

± gives the expanded uncertainty stated by the source.

A short description of the data set: an = ratio of the nth substance listed. The settings on record: 298.15 K, 101 kPa, Liquid, Vibrating tube method.

For `NCC(=O)O` [2-aminoacetic acid] + O, the mass density (a1 = 0.1072) is listed as 1039.03 ± 0.16 kg/m3; the mass density (a1 = 0.1494) turned out to be 1051.67 ± 0.16 kg/m3; the mass density (a1 = 0.1778) was 1060.02 ± 0.17 kg/m3; the mass density (a1 = 0.2042) was found to be 1068.38 ± 0.17 kg/m3; the mass density (a1 = 0.2232) was determined as 1074.06 ± 0.17 kg/m3; the mass density (a1 = 0.2433) was 1080.28 ± 0.17 kg/m3.

Consider `O=C(O)CNCC(=O)O` [N-(carboxymethyl)glycine] + O, for which the mass density (a1 = 0.1079) stood at 1027.42 ± 0.16 kg/m3; the mass density (a1 = 0.1403) worked out at 1040.98 ± 0.16 kg/m3; the mass density (a1 = 0.1768) stood at 1056.44 ± 0.17 kg/m3; the mass density (a1 = 0.1982) is listed as 1065.68 ± 0.17 kg/m3; the mass density (a1 = 0.2153) was 1072.61 ± 0.17 kg/m3; the mass density (a1 = 0.2301) is on record as 1077.43 ± 0.17 kg/m3.

Take `O=C1CNC(=O)CN1` [2,5-diketopiperazine] + O: the mass density reads like this: (a1 = 0.0025) 998.08 ± 0.15 kg/m3; (a1 = 0.0053) 998.93 ± 0.15 kg/m3; (a1 = 0.0101) 1000.45 ± 0.15 kg/m3; (a1 = 0.0134) 1001.53 ± 0.15 kg/m3; (a1 = 0.016) 1002.32 ± 0.15 kg/m3.
